Patent US20260285850A1, “SUBSTITUTED OXAZOLIDINONES AND IMIDAZOLINONES AS HERBICIDES” (FMC CORPORATION, priority 2023, published 2026)

Assays:
Assay type in all cases: in vivo
kochia (Bassia scoparia) [1] = assay: Test A preemergence soil spray, visual injury rating 0-100; details: 10 days
In short: (§1)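 Loam-sand pots got test material in surfactant-containing solvent, either as a directed soil spray before emergence or on plants at the one- to two-leaf stage. Visual injury (0-100) was read after ten greenhouse days.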

[2] = test system: wheat (Triticum aestivum); assay: as above; details: 10 days
In short: as §1

[3] = test system: palmer (palmer amaranth, palmer pigweed, Amaranthus palmeri); assay: as above; details: 10 days
In short: as §1

[4] = test system: ryegrass, Italian (italian ryegrass, Lolium multiflorum); assay: as above; details: 10 days
In short: as §1

[5] = test system: barnyardgrass (Echinochloa crus-galli); assay: as above; details: 10 days
In short: as §1

corn (Zea mays) [6] = assay: as above; details: 10 days
In short: as §1

soybean (Glycine max) [7] = assay: as above; details: 10 days
In short: as §1

[8] = test system: oat, wild (wild oat, Avena fatua); assay: as above; details: 10 days
In short: as §1

[9] = test system: ragweed (common ragweed, Ambrosia artemisiifolia); assay: as above; details: 10 days
In short: as §1

[10] = test system: blackgrass (Alopecurus myosuroides); assay: as above; details: 10 days
In short: as §1

[11] = test system: green foxtail (Setaria viridis); assay: as above; details: 10 days
In short: as §1

[12] = test system: sedge, umbrella (small-flower umbrella sedge, Cyperus difformis); assay: Test B flooded paddy test, visual plant response rating 0-100; details: 250 g ai/ha, Flood, applied to paddy water, evaluated after 13 days
In short: (§2)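 Plants were grown to the 2-leaf stage, then pots were flooded to 3 cm above the soil and compound was applied directly to the paddy water, with that depth kept throughout.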

[13] = test system: ducksalad (Heteranthera limosa); assay: as above; details: 250 g ai/ha, Flood, applied to paddy water, evaluated after 13 days
In short: as §2

rice (Oryza sativa) = assay: as above; details: 250 g ai/ha, Flood, applied to paddy water, evaluated after 13 days
In short: as §2

[14] = test system: barnyardgrass (Echinochloa crusgalli); assay: as above; details: 250 g ai/ha, Flood, applied to paddy water, evaluated after 13 days
In short: as §2

kochia (Bassia scoparia) [15] = assay: Test A postemergence application, visual injury rating 0-100
In short: as §1

[16] = test system: horseweed (Erigeron canadensis); assay: as above
In short: as §1

[17] = test system: wheat (Triticum aestivum); assay: as above
In short: as §1

[18] = test system: palmer (palmer amaranth, palmer pigweed, Amaranthus palmeri); assay: as above
In short: as §1

[19] = test system: galium (catchweed bedstraw, Galium aparine); assay: as above
In short: as §1

[20] = test system: ryegrass, Italian (italian ryegrass, Lolium multiflorum); assay: as above
In short: as §1

[21] = test system: barnyardgrass (Echinochloa crus-galli); assay: as above
In short: as §1

corn (Zea mays) [22] = assay: as above
In short: as §1

soybean (Glycine max) [23] = assay: as above
In short: as §1

[24] = test system: oat, wild (wild oat, Avena fatua); assay: as above
In short: as §1

[25] = test system: ragweed (common ragweed, Ambrosia artemisiifolia); assay: as above
In short: as §1

[26] = test system: blackgrass (Alopecurus myosuroides); assay: as above
In short: as §1

[27] = test system: green foxtail (Setaria viridis); assay: as above
In short: as §1

[28] = 62 g ai/ha, 0 = no effect, 100 = complete control
[29] = 62 g ai/ha, postemergence, 10 days, 0 = no effect, 100 = complete control
[30] = Postemergence, 16 g ai/ha, greenhouse 10 days, 0 no effect, 100 complete control

Compound: CC(C)OC(=O)C1=CCC(NC(=O)C2(C)CN(c3cc(F)cc(F)c3)C(=O)O2)C1 (stereo not shown) [Compound 99]
- Kochia plant response rating (kochia (Bassia scoparia) [1]; 16 g ai/ha, 0 to 100 scale): 0
- Kochia plant response rating (0-100) (kochia (Bassia scoparia) [1]; [28]): 0
- Wheat plant response rating ([2]; 16 g ai/ha, 0 to 100 scale): 0
- Wheat plant response rating (0-100) [2, 28]: 0
- Pigweed, Palmer plant response rating ([3]; 16 g ai/ha, 0 to 100 scale): 0
- Pigweed, Palmer plant response rating (0-100) [3, 28]: 0
- Ryegrass, Italian plant response rating ([4]; 16 g ai/ha, 0 to 100 scale): 0
- Ryegrass, Italian plant response rating (0-100) [4, 28]: 0
- Barnyardgrass plant response rating ([5]; 16 g ai/ha, 0 to 100 scale): 0
- Barnyardgrass plant response rating (0-100) [5, 28]: 0
- Corn plant response rating (corn (Zea mays) [6]; 16 g ai/ha, 0 to 100 scale): 0
- Corn plant response rating (0-100) (corn (Zea mays) [6]; [28]): 0
- Soybean plant response rating (soybean (Glycine max) [7]; 16 g ai/ha, 0 to 100 scale): 0
- Soybean plant response rating (0-100) (soybean (Glycine max) [7]; [28]): 0
- Oat, Wild plant response rating ([8]; 16 g ai/ha, 0 to 100 scale): 20
- Oat, Wild plant response rating (0-100) [8, 28]: 50
- Ragweed plant response rating ([9]; 16 g ai/ha, 0 to 100 scale): 0
- Ragweed plant response rating (0-100) [9, 28]: 0
- Blackgrass plant response rating ([10]; 16 g ai/ha, 0 to 100 scale): 0
- Blackgrass plant response rating (0-100) [10, 28]: 0
- Foxtail, Green plant response rating ([11]; 16 g ai/ha, 0 to 100 scale): 0
- Foxtail, Green plant response rating (0-100) [11, 28]: 40
- Plant response rating, Sedge, Umbrella (0 to 100 scale, 0 is no effect and 100 is complete control) [12]: 0
- Plant response rating, Ducksalad (0 to 100 scale, 0 is no effect and 100 is complete control) [13]: 0
- Plant response rating, Rice (0 to 100 scale, 0 is no effect and 100 is complete control) (rice (Oryza sativa)): 0
- Plant response rating, Barnyardgrass (0 to 100 scale, 0 is no effect and 100 is complete control) [14]: 0
- Kochia plant response rating (0-100) (kochia (Bassia scoparia) [15]; [29]): 0
- Kochia plant response rating (0 to 100 scale) (kochia (Bassia scoparia) [15]; [30]): 0
- Horseweed plant response rating (0-100) [16, 29]: 0
- Horseweed plant response rating (0 to 100 scale) [16, 30]: 0
- Wheat plant response rating (0-100) [17, 29]: 10
- Wheat plant response rating (0 to 100 scale) [17, 30]: 0
- Pigweed, Palmer plant response rating (0-100) [18, 29]: 0
- Pigweed, Palmer plant response rating (0 to 100 scale) [18, 30]: 0
- Galium plant response rating (0-100) [19, 29]: 20
- Galium plant response rating (0 to 100 scale) [19, 30]: 20
- Ryegrass, Italian plant response rating (0-100) [20, 29]: 0
- Ryegrass, Italian plant response rating (0 to 100 scale) [20, 30]: 0
- Barnyardgrass plant response rating (0-100) [21, 29]: 0
- Barnyardgrass plant response rating (0 to 100 scale) [21, 30]: 0
- Corn plant response rating (0-100) (corn (Zea mays) [22]; [29]): 0
- Corn plant response rating (0 to 100 scale) (corn (Zea mays) [22]; [30]): 0
- Soybean plant response rating (0-100) (soybean (Glycine max) [23]; [29]): 20
- Soybean plant response rating (0 to 100 scale) (soybean (Glycine max) [23]; [30]): 0
- Oat, Wild plant response rating (0-100) [24, 29]: 0
- Oat, Wild plant response rating (0 to 100 scale) [24, 30]: 0
- Ragweed plant response rating (0-100) [25, 29]: 0
- Ragweed plant response rating (0 to 100 scale) [25, 30]: 0
- Blackgrass plant response rating (0-100) [26, 29]: 0
- Blackgrass plant response rating (0 to 100 scale) [26, 30]: 0
- Foxtail, Green plant response rating (0-100) [27, 29]: 0
- Foxtail, Green plant response rating (0 to 100 scale) [27, 30]: 0
